Data reported in PMC5458211, “Mitochondrial VDAC1-based peptides: Attacking oncogenic properties in glioblastoma” (Oncotarget, 2017).
Non-standard residues stand in square brackets, D forms with d. Residues, ends and D or L forms follow the SMILES beside them.

Assays:
[1] = system: mitochondrial membrane potential (ΔΨm) in U-87MG cells; assay: Mitochondrial membrane potential (TMRM); assay type: cell-based, human; conditions: 3 h
Procedure: Figure 2 Mode of action of VDAC1-based peptides – interacting with- and detaching HK, releasing Cyto c, decreasing ATP level and inducing apoptosis A. Purified HK-II was fluorescently labeled using the NanoTemper protein-labeling Kit BLUE. […] Then, 3-5 μl of the samples were loaded into MST-grade glass capillaries and thermophoresis was measured using a Monolith-NT115 apparatus, as described in Materials and methods available online in Supplemental information. […] The final DMSO concentration in control and peptide-treated cells was 0.07%. Fixed cells were visualized using confocal microscopy (Olympus 1×81), as described in Materials and Methods available online in Supplemental information. […] The levels of HK in the supernatants were quantified and are presented as relative units. D. D-ΔN-Ter-Antp induces mitochondrial inner membrane depolarization analyzed as described in Materials and Methods available online in Supplemental information. […] Cells then were analyzed for Δψ using TMRM. Δψ is presented as percentage of control. […] Release of Cyto c from the mitochondria was analyzed by immunostaining using anti-Cyto c antibodies and confocal microscopy (Olympus 1×81) as described in Materials and Methods available online in Supplemental information. […] Quantification of apoptosis in control and peptide's treated cells are presented bellow the images. […]

[2] = Blood-brain barrier crossing in the intracranial xenograft model; assay type: in vivo, mouse; conditions: i.v.; concluded from intracranial tumor model
Procedure: B. U-87MG cells (2×10^5) were incubated for 12 h with the indicated concentrations of DMSO, Retro-Tf-D-LP4 peptide (Pep), or Retro-Tf-D-LP4 encapsulated in PLGA nanoparticles (PLGA-Pep). Samples of Retro-Tf-D-LP4 encapsulated in PLGA nanoparticles were centrifuged (15000g, 5 min) to separate the supernatant (Sup), containing free peptide, and the pellet, containing encapsulated Retro-Tf-D-LP4 peptide. Cell death was analyzed by PI staining and FACS analysis. C. Graphical representation of the orthotopic animal experiment. D. MRI imaging of brains 29 days post-intravenal treatment start with DMSO (1.05%), Retro-Tf-D-LP4 (10 mg/kg) encapsulated in PLGA nanoparticles or Tf-D-Retro-LP4 peptide (10 mg/Kg), as described in Materials and Methods available online in Supplemental information. E. Calculated tumor volumes after 20 (dark grey bars) and 29 (light grey bars) days post-treatment start. Results = mean ± SE (n = 6) (* p<0.05, *** p<0.001). F. Kaplan-Meier survival curves showing statistically significant differences in survival curves between the PBS/DMSO and Retro-Tf-D-LP4 treated mice. […]
For the intracranial-orthotopic xenograft mouse model, U-87MG cells (8×10^4) were engrafted into a nude mouse brain using a stereotactic device. […] Tumor volume was analyzed using VivoQuant 2.10 software.

Row | Compound | mitochondrial membrane potential (TMRM fluorescence) [1] | crossing of the blood-brain barrier / reaching the brain [2]
1 | CC[C@@H](C)[C@@H](NC(=O)[C@@H](CCCCN)NC(=O)[C@H](NC(=O)[C@@H](CCC(N)=O)NC(=O)[C@@H](CCCNC(=N)N)NC(=O)[C@@H](CC(C)C)NC(=O)CNC(=O)[C@@H](Cc1ccccc1)NC(=O)CNC(=O)[C@@H](Cc1ccc(O)cc1)NC(=O)CNC(=O)[C@@H](CCCCN)NC(=O)[C@H](NC(=O)[C@@H](Cc1ccccc1)NC(=O)[C@H](NC(=O)[C@@H](CC(=O)O)NC(=O)[C@H](N)CCCNC(=N)N)C(C)C)[C@H](C)O)[C@H](C)CC)C(=O)N[C@H](Cc1c[nH]c2ccccc12)C(=O)N[C@H](Cc1ccccc1)C(=O)N[C@H](CCC(N)=O)C(=O)N[C@H](CC(N)=O)C(=O)N[C@H](CCCNC(=N)N)C(=O)N[C@H](CCCNC(=N)N)C(=O)N[C@H](CCSC)C(=O)N[C@H](CCCCN)C(=O)N[C@H](Cc1c[nH]c2ccccc12)C(=O)N[C@H](CCCCN)C(=O)N[C@H](CCCCN)C(=O)O [D-ΔN-Ter-Antp] (H-[dR][dD][dV][dF][dT][dK]G[dY]G[dF]G[dL][dR][dQ][dI][dK][dI][dW][dF][dQ][dN][dR][dR][dM][dK][dW][dK][dK]-OH; N-terminus and C-terminus assumed) | decrease in ΔΨm | –
2 | CC[C@H](C)[C@H](NC(=O)[C@H](Cc1ccc(O)cc1)NC(=O)[C@@H]1CCCN1C(=O)[C@H](CCCNC(=N)N)NC(=O)[C@H](Cc1c[nH]cn1)NC(=O)[C@H](CO)NC(=O)[C@H](Cc1c[nH]c2ccccc12)NC(=O)[C@@H](NC(=O)[C@H](Cc1c[nH]c2ccccc12)NC(=O)[C@H](CCC(=O)O)NC(=O)[C@@H](CCCCN)NC(=O)[C@@H](CCCCN)NC(=O)[C@@H](CC(C)C)NC(=O)[C@@H](CCC(=O)O)NC(=O)[C@H](NC(=O)[C@@H](C)NC(=O)[C@H](NC(=O)[C@@H](CC(N)=O)NC(=O)[C@@H](CC(C)C)NC(=O)[C@@H](C)NC(=O)[C@@H](Cc1c[nH]c2ccccc12)NC(=O)[C@H](NC(=O)[C@@H](C)NC(=O)CNC(=O)[C@@H](CC(N)=O)NC(=O)[C@@H](CO)NC(=O)[C@@H](CC(N)=O)NC(=O)[C@H](CCCCN)NC(=O)[C@H](Cc1c[nH]c2ccccc12)NC(=O)[C@@H](NC(=O)[C@H](Cc1c[nH]c2ccccc12)NC(=O)[C@@H](N)CCCCN)[C@@H](C)O)[C@H](C)O)C(C)C)[C@H](C)O)[C@@H](C)O)C(=O)N[C@@H](C)C(=O)N[C@@H](Cc1c[nH]cn1)C(=O)O [Retro-Tf-D-LP4] | – | able to cross the blood-brain barrier in vivo
